Reference: patent publication US20060079453A1, “Hla binding peptides and their uses” (priority 2002, published 2006)
No end group written: not given here.

Key:
Assay in all cases: biochemical
Type in all cases: binding
[1] = biological target: HLA-DR DRB1*0401 (DR4) (Homo sapiens, UniProt P01903+P01911, A100K/A169T/F76Y/I96L/K127E/L162R/M171V/N62H/P40V/Q125Y/R42H/S133A/S149N/S66Y/V115G/V209L/W38E); details: DRB1 *0401
[2] = biological target: HLA-DR DRB1*1302 (DR13) (Homo sapiens, UniProt P01903+P01911, A100E/A169T/K41T/L162R/M171V/P40S/Q125H/Q178H/Q39Y/Q99D/R42S/S66N/T262R/V115G/W38E/Y61H); details: DRBI *1302
Chain of HLA-DR DRB1*1302 (DR13) (P01903 26-254 limits assumed, other chains not shown): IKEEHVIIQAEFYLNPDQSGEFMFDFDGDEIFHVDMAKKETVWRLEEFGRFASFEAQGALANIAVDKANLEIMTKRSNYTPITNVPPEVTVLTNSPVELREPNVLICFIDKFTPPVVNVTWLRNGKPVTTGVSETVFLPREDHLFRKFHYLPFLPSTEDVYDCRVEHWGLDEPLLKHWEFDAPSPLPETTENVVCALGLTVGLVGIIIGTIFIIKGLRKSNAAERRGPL

[3] = biological target: HLA-DR DRB1*0101 (DR1) (Homo sapiens, UniProt P01903+P01911, A100R/D57E/F55L/F60I/F76Y/I96L/L162R/M171V/P40L/Q125E/R42F/V115G/Y59C); details: DRB1 *0101
[4] = biological target: HLA-DR DRB1*0802 (DR8) (Homo sapiens, UniProt P01903+P01911, A100R/A103L/A169T/F76Y/H45Y/I96F/K41T/L162R/M171V/P40S/Q125H/Q178H/Q39Y/Q99D/R218S/R42G/S66Y/V115G/W38E)
[5] = biological target: HLA-DR DRB1*1101 (DR11) (Homo sapiens, UniProt P01903+P01911, A100R/A169T/A87E/I96F/K41T/L162R/M171V/P40S/Q125H/Q178H/Q39Y/Q99D/R42S/S66Y/T262R/V115G/W38E); details: DRB1 *1101
Chain of HLA-DR DRB1*1101 (DR11) (P01903 26-254 limits assumed, other chains not shown): as above

[6] = biological target: HLA-DR DRB5*0101 (DR51) (Homo sapiens, UniProt P01903+Q30154); details: DRB5 *0101
[7] = biological target: HLA-DR DRB1*1501 (DR15) (Homo sapiens, UniProt P01903+P01911); details: DRBI *1501
[8] = biological target: HLA-DR DRB1*0901 (DR9) (Homo sapiens, UniProt P01903+P01911, A100R/A103E/D57H/D86V/F55Y/F60I/F76Y/I96F/K127E/L162R/M171V/P40D/Q125H/Q99R/R33Q/R42F/S133A/S66N/T210M/V115G/W38K/Y107V/Y59G/Y89S); details: DRB1 *0901
[9] = biological target: HLA-DR DRB1*0701 (DR7) (Homo sapiens, UniProt P01903+P01911, A100R/A102G/A103Q/D57E/D86V/E43K/F76Y/K127E/L162R/M171V/P40G/Q125H/Q99D/R33Q/R42Y/R54Q/S133A/S66F/T210M/V115G/Y107V/Y59L/Y89S); details: DRB1 *0701
[10] = biological target: HLA-DR DRB3*0101 (DR52) (Homo sapiens, UniProt P01903+P79483)
[11] = biological target: HLA-DR DRB4*0101 (DR53) (Homo sapiens, UniProt P01903+P13762, G164S); details: DRB4 *0101

Compound: CC[C@H](C)[C@H](NC(=O)[C@@H]1CCCN1C(=O)[C@H](Cc1c[nH]cn1)NC(=O)[C@@H](NC(=O)[C@@H]1CCCN1C(=O)[C@@H](NC(=O)[C@H](CO)NC(=O)[C@@H]1CCCN1C(=O)[C@H](CC(C)C)NC(=O)CNC(=O)[C@@H](NC(=O)[C@H](C)NC(=O)[C@H](CCC(=O)O)NC(=O)[C@H](C)N)C(C)C)[C@@H](C)CC)C(C)C)C(=O)NCC(=O)O
- IC50 [1]: 9.92 µM
- IC50 [2]: 5460 nM
- IC50 [3]: 5.4 nM
- IC50 [4]: > 490 µM
- IC50 [5]: > 66.7 µM
- IC50 [6]: 69300 nM
- IC50 [7]: 0.056 µM
- IC50 [8]: 23.1 µM
- IC50 [9]: 2.02 µM
- IC50 [10]: > 11.8 µM

Compound: CSCC[C@H](NC(=O)CNC(=O)[C@H](CC(C)C)NC(=O)[C@H](CCC(N)=O)NC(=O)[C@@H](NC(=O)[C@H](CC(C)C)NC(=O)[C@H](CCC(N)=O)NC(=O)CNC(=O)[C@@H](N)Cc1ccccc1)[C@@H](C)O)C(=O)N[C@@H](CCC(=O)O)C(=O)N[C@@H](CCC(N)=O)C(=O)N[C@@H](Cc1c[nH]cn1)C(=O)N[C@@H](Cc1ccc(O)cc1)C(=O)N[C@@H](CCC(=O)O)C(=O)N[C@@H](CC(C)C)C(=O)O
- IC50 [1]: 3.21 µM
- IC50 [11]: 543 nM
- IC50 [2]: > 35000 nM
- IC50 [3]: 2260 nM
- IC50 [4]: 110 µM
- IC50 [6]: ≥ 100000 nM
- IC50 [7]: > 22.8 µM
- IC50 [8]: > 187 µM
- IC50 [9]: > 62.5 µM
- IC50 [10]: > 14.4 µM

Compound: CC(C)C[C@H](NC(=O)[C@H](CCC(N)=O)NC(=O)[C@H](C)NC(=O)[C@H](CC(N)=O)NC(=O)[C@H](CCCCN)NC(=O)[C@@H](NC(=O)[C@H](CCCCN)NC(=O)[C@H](CC(N)=O)NC(=O)CN)C(C)C)C(=O)N[C@@H](C)C(=O)NCC(=O)N[C@@H](C)C(=O)N[C@@H](CCCCN)C(=O)NCC(=O)N[C@H](C(=O)O)C(C)C
- IC50 [2]: > 35000 nM
- IC50 [3]: 677 nM
- IC50 [4]: 28.9 µM
- IC50 [5]: > 66.7 µM
- IC50 [6]: 1220 nM
- IC50 [7]: > 45.5 µM
- IC50 [8]: 7.88 µM
- IC50 [9]: > 83.3 µM
- IC50 [10]: > 12.5 µM

Compound: CC[C@H](C)[C@H](NC(=O)[C@H](CO)NC(=O)[C@H](CO)NC(=O)[C@H](CC(=O)O)NC(=O)[C@H](C)NC(=O)[C@H](CC(N)=O)NC(=O)[C@@H](NC(=O)[C@H](Cc1ccc(O)cc1)NC(=O)[C@H](C)NC(=O)[C@@H](NC(=O)CN)C(C)C)[C@@H](C)CC)C(=O)N[C@@H](CCC(=O)O)C(=O)NCC(=O)N[C@@H](CC(N)=O)C(=O)N[C@@H](Cc1ccc(O)cc1)C(=O)O
- IC50 [1]: 0.146 µM
- IC50 [11]: 477 nM
- IC50 [4]: 23.4 µM
- IC50 [5]: > 40 µM
- IC50 [6]: 66700 nM
- IC50 [7]: 7.61 µM
- IC50 [8]: 3.05 µM
- IC50 [9]: 6.24 µM
- IC50 [10]: 1.42 µM

Compound: CC[C@H](C)[C@H](NC(=O)[C@H](CCC(N)=O)NC(=O)[C@@H](NC(=O)[C@H](Cc1ccccc1)NC(=O)[C@H](CC(N)=O)NC(=O)[C@H](Cc1ccc(O)cc1)NC(=O)[C@H](CC(C)C)NC(=O)[C@H](Cc1ccccc1)NC(=O)[C@@H](N)CCCCN)[C@@H](C)O)C(=O)N1CCC[C@H]1C(=O)N[C@@H](Cc1c[nH]cn1)C(=O)N[C@@H](CC(C)C)C(=O)N[C@@H](C)C(=O)NCC(=O)N[C@H](C(=O)O)[C@@H](C)O
- IC50 [11]: 256 nM
- IC50 [2]: 221 nM
- IC50 [3]: 340 nM
- IC50 [4]: 0.415 µM
- IC50 [5]: 0.091 µM
- IC50 [6]: 1600 nM
- IC50 [8]: 0.054 µM
- IC50 [9]: 0.03 µM
- IC50 [10]: 10.2 µM

Compound: CC[C@H](C)[C@H](NC(=O)[C@H](CO)NC(=O)[C@@H](NC(=O)CNC(=O)[C@H](CCC(=O)O)NC(=O)[C@@H]1CCCN1)C(C)C)C(=O)N[C@@H](Cc1c[nH]c2ccccc12)C(=O)N[C@@H](CC(N)=O)C(=O)N1CCC[C@H]1C(=O)N[C@H](C(=O)N[C@@H](CC(C)C)C(=O)N[C@@H](CC(C)C)C(=O)N[C@@H](Cc1c[nH]c2ccccc12)C(=O)N[C@@H](CCC(N)=O)C(=O)N1CCC[C@H]1C(=O)O)[C@@H](C)CC
- IC50 [1]: 1.78 µM
- IC50 [11]: 107 nM
- IC50 [4]: 28.6 µM
- IC50 [5]: 30.9 µM
- IC50 [6]: 22200 nM
- IC50 [7]: 0.0072 µM
- IC50 [8]: 103 µM
- IC50 [9]: 15 µM
- IC50 [10]: 4.62 µM

Compound: CC[C@H](C)[C@H](NC(=O)[C@@H](NC(=O)[C@H](Cc1c[nH]cn1)NC(=O)[C@@H](N)CCCNC(=N)N)C(C)C)C(=O)N[C@@H](Cc1ccc(O)cc1)C(=O)N[C@@H](C)C(=O)N1CCC[C@H]1C(=O)N[C@@H](CO)C(=O)N[C@@H](CO)C(=O)N[C@@H](Cc1c[nH]cn1)C(=O)N[C@@H](CC(N)=O)C(=O)N[C@@H](CCCCN)C(=O)N[C@@H](Cc1ccc(O)cc1)C(=O)N[C@@H](C)C(=O)NCC(=O)O
- IC50 [1]: 0.481 µM
- IC50 [11]: 5290 nM
- IC50 [3]: 2170 nM
- IC50 [4]: 11.7 µM
- IC50 [5]: 13.4 µM
- IC50 [6]: 88 nM
- IC50 [8]: 0.481 µM
- IC50 [9]: 31.2 µM
- IC50 [10]: > 62.8 µM

Compound: CC[C@H](C)[C@H](NC(=O)[C@H](CO)NC(=O)[C@H](CC(N)=O)NC(=O)[C@H](C)NC(=O)[C@H](CC(C)C)NC(=O)[C@H](CCC(=O)O)NC(=O)[C@H](Cc1ccccc1)NC(=O)[C@@H](N)C(C)C)C(=O)N[C@H](C(=O)N[C@@H](CC(C)C)C(=O)N1CCC[C@H]1C(=O)N[C@@H](Cc1ccccc1)C(=O)N[C@@H](CC(=O)O)C(=O)N[C@@H](CS)C(=O)N[C@@H](CCCNC(=N)N)C(=O)O)C(C)C
- IC50 [1]: 0.999 µM
- IC50 [2]: 24 nM
- IC50 [3]: 19 nM
- IC50 [4]: 36.1 µM
- IC50 [5]: 11.8 µM
- IC50 [7]: 0.477 µM
- IC50 [8]: 0.05 µM
- IC50 [9]: 0.039 µM
- IC50 [10]: 0.128 µM

Compound: GQRVPVSHSFPHPLY
- IC50 [1]: > 40 µM
- IC50 [11]: 9860 nM
- IC50 [2]: 703 nM
- IC50 [3]: 1560 nM
- IC50 [4]: > 245 µM
- IC50 [5]: > 200 µM
- IC50 [6]: > 200000 nM
- IC50 [8]: 0.102 µM
- IC50 [9]: 0.629 µM
- IC50 [10]: > 14.9 µM

Compound: LRMMNDQLMFLERAF
- IC50 [1]: 0.392 µM
- IC50 [11]: 50 nM
- IC50 [2]: 1310 nM
- IC50 [3]: 2700 nM
- IC50 [4]: 2.49 µM
- IC50 [5]: 1.83 µM
- IC50 [6]: 758 nM
- IC50 [8]: 4.6 µM
- IC50 [9]: 17.5 µM
- IC50 [10]: 1.57 µM

Compound: LSGLHGQDLFGIWSK
- IC50 [1]: > 26.7 µM
- IC50 [2]: > 35000 nM
- IC50 [3]: 148 nM
- IC50 [4]: > 81.7 µM
- IC50 [5]: 30.2 µM
- IC50 [6]: 81700 nM
- IC50 [7]: 32.2 µM
- IC50 [8]: > 125 µM
- IC50 [9]: > 35.7 µM
- IC50 [10]: > 8.83 µM

Compound: NMSLLKHQSLRPDED [NMSLLKHQSLRPDED]
- IC50 [1]: > 40 µM
- IC50 [2]: > 35000 nM
- IC50 [3]: 3130 nM
- IC50 [4]: 26.5 µM
- IC50 [5]: 25.8 µM
- IC50 [6]: > 100000 nM
- IC50 [7]: > 30.3 µM
- IC50 [8]: 96.8 µM
- IC50 [10]: > 14.9 µM

Compound: QWVLTAAHCLKKNSQ
- IC50 [1]: > 40 µM
- IC50 [11]: 14400 nM
- IC50 [2]: > 35000 nM
- IC50 [3]: 895 nM
- IC50 [4]: 98 µM
- IC50 [6]: 382 nM
- IC50 [7]: > 45.5 µM
- IC50 [8]: 4.81 µM
- IC50 [9]: 3.4 µM
- IC50 [10]: > 14.9 µM

Compound: RVPVSHSFPHPLYNM
- IC50 [1]: > 16 µM
- IC50 [11]: 9210 nM
- IC50 [2]: 377 nM
- IC50 [3]: 67 nM
- IC50 [4]: 100 µM
- IC50 [5]: > 200 µM
- IC50 [7]: 5.52 µM
- IC50 [8]: 0.097 µM
- IC50 [10]: > 14.9 µM

Compound: TNKFSGYPLYHSVYE
- IC50 [1]: 5.52 µM
- IC50 [2]: > 35000 nM
- IC50 [3]: 3400 nM
- IC50 [4]: 0.614 µM
- IC50 [5]: 33.3 µM
- IC50 [6]: 2940 nM
- IC50 [7]: 0.489 µM
- IC50 [8]: 0.741 µM
- IC50 [9]: 30.9 µM
- IC50 [10]: > 21.9 µM
